Measured values taken from patent US20210122763A1, “OGA INHIBITOR COMPOUNDS” (Janssen Pharmaceutica NV, priority 2018, published 2021).

Target: T1, OGA (Mus musculus, UniProt Q9EQQ9)
T1 construct: Brains were immediately removed from the skull; from tissue; host or cells: mouse brain (forebrain area of sagittal sections)
T1 sequence (Q9EQQ9 1-916): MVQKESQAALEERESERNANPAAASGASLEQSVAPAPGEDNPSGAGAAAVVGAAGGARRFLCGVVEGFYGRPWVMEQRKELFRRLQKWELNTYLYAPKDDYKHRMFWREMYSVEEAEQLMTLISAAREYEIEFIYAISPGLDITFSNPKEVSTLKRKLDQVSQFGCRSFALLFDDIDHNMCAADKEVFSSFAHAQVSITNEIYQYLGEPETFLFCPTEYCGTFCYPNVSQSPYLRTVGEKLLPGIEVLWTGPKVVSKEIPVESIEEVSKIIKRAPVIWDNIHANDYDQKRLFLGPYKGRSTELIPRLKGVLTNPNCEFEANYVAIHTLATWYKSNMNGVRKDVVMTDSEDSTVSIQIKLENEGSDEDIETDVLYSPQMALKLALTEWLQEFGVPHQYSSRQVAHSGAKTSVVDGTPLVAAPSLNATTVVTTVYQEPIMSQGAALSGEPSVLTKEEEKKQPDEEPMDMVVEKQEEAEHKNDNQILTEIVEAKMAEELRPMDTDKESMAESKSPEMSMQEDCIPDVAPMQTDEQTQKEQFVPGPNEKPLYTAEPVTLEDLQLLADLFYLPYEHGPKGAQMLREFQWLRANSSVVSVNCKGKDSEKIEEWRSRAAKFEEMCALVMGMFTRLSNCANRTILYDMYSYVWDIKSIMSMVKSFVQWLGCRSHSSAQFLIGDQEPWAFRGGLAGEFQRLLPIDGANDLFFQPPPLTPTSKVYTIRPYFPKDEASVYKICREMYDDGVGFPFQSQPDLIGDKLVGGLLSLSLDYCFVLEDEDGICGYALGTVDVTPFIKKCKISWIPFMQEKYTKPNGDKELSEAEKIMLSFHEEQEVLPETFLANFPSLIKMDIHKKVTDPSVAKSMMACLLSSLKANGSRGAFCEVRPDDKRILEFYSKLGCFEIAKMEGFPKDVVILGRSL
Assay: Ex vivo OGA occupancy assay using [3H]-ligand
Format: in vivo
Settings: male NMRI or C57Bl6j mice, p.o., 24 h after administration, forebrain area of brain sections, 3 nM [3H]-ligand, normalised to vehicle; for receptor occupancy at 25 mg/kg: mouse, po, read-out: Occupancy (% +/− sd)
Protocol: 3) Ex Vivo OGA Occupancy Assay Using [3H]-Ligand Drug Treatment and Tissue Preparation
Male NMRI or C57Bl6j mice were treated by oral (p.o.) administration of vehicle or compound. Animals were sacrificed 24 hours after administration. Brains were immediately removed from the skull, hemispheres were separated and the right hemisphere, for ex vivo OGA occupancy assay, was rapidly frozen in dry-ice cooled 2-methylbutane (−40° C.). […] sagittal sections were cut using a Leica CM 3050 cryostat-microtome (Leica, Belgium), thaw-mounted on microscope slides (SuperFrost Plus Slides, Thermo Fisher Scientific) and stored at −20° C. until use. After thawing, sections were dried under a cold stream of air. The sections were not washed prior to incubation. The 10 minutes incubation with 3 nM [^3H]-ligand was rigorously controlled. All brain sections (from compound-treated and vehicle-treated animals) were incubated in parallel. After incubation, the excess of [^3H]-ligand was washed off in ice-cold buffer (PBS 1× and 1% BSA) 2 times 10 minutes, followed by a quick dip in distilled water. The sections were then dried under a stream of cold air.
QUANTITATIVE AUTORADIOGRAPHY AND DATA ANALYSIS Radioactivity in the forebrain area of brain slices was measured using a P-imager with M3 vision analysis software (Biospace Lab, Paris). Specific binding was calculated as the difference between total binding and non-specific binding measured in Thiamet-G (10 μM) treated sections. Specific binding in sections from drug treated animals was normalised to binding in sections from vehicle treated mice to calculate percentage of OGA occupancy by the drug.

Row | receptor occupancy at 25 mg/kg [%] | Occupancy (% +/− sd) (25 mg/kg) | SMILES
1 | 97 | – | Cc1cc(OC2CCN([C@@H](C)c3nc4nc(C)sc4cc3F)CC2)cc(C)n1 (single isomer, unassigned) [Compound 83]
2 | 94.7 | – | Cc1cc(OC2CCN([C@H](C)c3nc4c(cc3F)CCO4)CC2)cc(C)n1 (single isomer, unassigned) [Compound 144]
3 | 84.3 | 77.67 +/− 10.5% | Cc1cc(OC2CCN([C@H](C)c3nc4c(cc3F)OCCO4)CC2)cc(C)n1 (single isomer, unassigned) [Compound 148]
4 | 20 | – | Cc1ncc(OC2CCN(C(C)c3nc4c(cc3F)CCO4)CC2)cn1 (centres unmarked) [Compound 95]
